The values that follow come from patent US8431565B2 (priority 2007, dated 2013).

As a reminder, the EC50 is the midpoint of the concentration-response curve.

This assay deals with T1, rat CB2 receptor (rCB2) (Rattus norvegicus, UniProt Q9QZN9).
T1 sequence (Q9QZN9 1-360): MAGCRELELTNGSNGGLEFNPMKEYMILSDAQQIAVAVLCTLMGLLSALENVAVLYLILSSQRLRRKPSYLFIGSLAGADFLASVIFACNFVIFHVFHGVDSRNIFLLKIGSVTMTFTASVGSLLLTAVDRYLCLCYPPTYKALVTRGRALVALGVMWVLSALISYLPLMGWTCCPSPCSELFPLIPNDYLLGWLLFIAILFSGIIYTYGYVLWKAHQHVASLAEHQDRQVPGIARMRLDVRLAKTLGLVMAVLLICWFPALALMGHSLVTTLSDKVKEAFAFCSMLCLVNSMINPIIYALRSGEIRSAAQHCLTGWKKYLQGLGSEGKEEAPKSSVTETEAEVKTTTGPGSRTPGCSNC
`Cc1noc([C@@H](NC(=O)c2nc(-c3ccccc3)n3c2CN(C2CC2)CC3)C(C)(C)C)n1` [Compound 198, (S)-7-cyclopropyl-N-(2,2-dimethyl-1-(3-methyl-1,2,4-oxadiazol-5-yl)propyl)-3-phenyl-5,6,7,8-tetrahydroimidazo[1,5-a]pyrazine-1-carboxamide] yielded an EC50 of 0.0001 to 0.01 µM.

`CNC(=O)[C@@H](NC(=O)c1nc(-c2cccc(C(F)(F)F)c2)n2c1CNCC2)C(C)(C)C` [Compound 3, (S)-N-(3,3-dimethyl-1-(methylamino)-1-oxobutan-2-yl)-3-(3-(trifluoromethyl)phenyl)-5,6,7,8-tetrahydroimidazo[1,5-a]pyrazin-1-carboxamide] showed an EC50 of 0.01 to 0.1 µM.

Molecule `CC(C)CN1CCn2c(-c3ccccc3)nc(C(=O)NCC3CCOCC3)c2C1` [Compound 167, 7-isobutyl-3-phenyl-N-((tetrahydro-2H-pyran-4-yl)methyl)-5,6,7,8-tetrahydroimidazo[1,5-a]pyrazine-1-carboxamide] came in with an EC50 of 0.01 to 0.1 µM.

In turn, `CC(C)CN1CCn2c(-c3ccccc3)nc(C(=O)NC3CCCCC3)c2C1` [Compound 165, N-cyclohexyl-7-isobutyl-3-phenyl-5,6,7,8-tetrahydroimidazo[1,5-a]pyrazine-1-carboxamide] yielded an EC50 of 0.0001 to 0.01 µM.

In turn, `CNC(=O)[C@@H](NC(=O)c1nc(-c2ccc(C(F)(F)F)cc2)n2c1CNCC2)C(C)(C)C` [Compound 5, (S)-N-(3,3-dimethyl-1-(methylamino)-1-oxobutan-2-yl)-3-(4-(trifluoromethyl)phenyl)-5,6,7,8-tetrahydroimidazo[1,5-a]pyrazin-1-carboxamide] gave an EC50 of 0.01 to 0.1 µM.

For the molecule `CNC(=O)[C@@H](NC(=O)c1nc(-c2ccccc2)n2c1CN(S(=O)(=O)c1ccccc1[N+](=O)[O-])CC2)C(C)(C)C` [Compound 97, (S)-N-(3,3-dimethyl-1-(methylamino)-1-oxobutan-2-yl)-7-(2-nitrophenylsulfonyl)-3-phenyl-5,6,7,8-tetrahydroimidazo[1,5-a]pyrazine-1-carboxamide], the EC50 was in the range of 0.01 to 0.1 µM.

The molecule `CCS(=O)(=O)N1CCn2c(-c3ccccc3)nc(C(=O)NC3C4(C)CCC(C4)C3(C)C)c2C1` (stereo not drawn) [Compound 112, 7-(ethylsulfonyl)-3-phenyl-N-(1,3,3-trimethylbicyclo[2.2.1]heptan-2-yl)-5,6,7,8-tetrahydroimidazo[1,5-a]pyrazine-1-carboxamide] yielded an EC50 of 0.01 to 0.1 µM.

Molecule `CNC(=O)[C@@H](NC(=O)c1nc(-c2ccccc2)n2c1CN(S(=O)(=O)c1ccccc1F)CC2)C(C)(C)C` [Compound 98, (S)-N-(3,3-dimethyl-1-(methylamino)-1-oxobutan-2-yl)-7-(2-fluorophenylsulfonyl)-3-phenyl-5,6,7,8-tetrahydroimidazo[1,5-a]pyrqazine-1-carboxamide] showed an EC50 of 0.01 to 0.1 µM.

In turn, `Cc1noc([C@@H](NC(=O)c2nc(-c3ccccc3)n3c2CN(CC2CC2)CC3)C(C)(C)C)n1` [Compound 88, (S)-7-(cyclopropylmethyl)-N-(2,2-dimethyl-1-(3-methyl-1,2,4-oxadiazol-5-yl)propyl)-3-phenyl-5,6,7,8-tetrahydroimidazo[1,5-a]pyrazine-1-carboxamide] returned an EC50 of 0.01 to 0.1 µM.

For `CNC(=O)[C@@H](NC(=O)c1nc(-c2ccccc2)n2c1CN(S(=O)(=O)CC(C)C)CC2)C(C)(C)C` [Compound 95, (S)-N-(3,3-dimethyl-1-(methylamino)-1-oxobutan-2-yl)-7-(isobutylsulfonyl)-3-phenyl-5,6,7,8-tetrahydroimidazo[1,5-a]pyrazine-1-carboxamide], the EC50 was in the range of 0.01 to 0.1 µM.

Turning to `CC(C)CN1CCn2c(-c3ccccc3)nc(C(=O)N[C@H](CO)C(C)(C)C)c2C1` [Compound 60, (S)-N-(1-hydroxy-3,3-dimethylbutan-2-yl)-7-isobutyl-3-phenyl-5,6,7,8-tetrahydroimidazo[1,5-a]pyrazine-1-carboxamide], the EC50 is 0.01 to 0.1 µM.

`CNC(=O)[C@@H](NC(=O)c1nc(-c2cc(C(F)(F)F)ccc2F)n2c1CN(C)CC2)C(C)(C)C` [Compound 245, (S)-N-(3,3-dimethyl-1-(methylamino)-1-oxobutan-2-yl)-3-(2-fluoro-5-(trifluoromethyl)phenyl)-7-methyl-5,6,7,8-tetrahydroimidazo[1,5-a]pyrazine-1-carboxamide] registered an EC50 of 0.01 to 0.1 µM.

With `CC(C)(C)OC(=O)N1CCn2c(-c3ccc(Cl)cc3)nc(C(=O)N[C@H](CO)C(C)(C)C)c2C1` (stereo in doubt) [Compound 34, tert-butyl 3-(4-chlorophenyl)-1-(1-hydroxy-3,3-dimethylbutan-2-ylcarbamoyl)-5,6-dihydroimidazo[1,5-a]pyrazine-7(8H)-carboxylate], the EC50 was in the range of 0.01 to 0.1 µM.

Molecule `CCCN1CCn2c(-c3ccccc3)nc(C(=O)Nc3ccccc3)c2C1` [Compound 154, N,3-diphenyl-7-propyl-5,6,7,8-tetrahydroimidazo[1,5-a]pyrazine-1-carboxamide] displayed an EC50 of 0.01 to 0.1 µM.

For `CC(C)(C)[C@@H](CO)NC(=O)c1nc(-c2ccccc2)n2c1CN(CC1CC1)CC2` [Compound 84, (S)-7-(cyclopropylmethyl)-N-(1-hydroxy-3,3-dimethylbutan-2-yl)-3-phenyl-5,6,7,8-tetrahydroimidazo[1,5-a]pyrazine-1-carboxamide], the EC50 was in the range of 0.01 to 0.1 µM.

For `CNC(=O)[C@@H](NC(=O)c1nc(/C=C/CN2CCCC2)n2c1CN(C)CC2)C(C)(C)C` [Compound 288, (S,E)-N-(3,3-dimethyl-1-(methylamino)-1-oxobutan-2-yl)-7-methyl-3-(3-(pyrrolidin-1-yl)prop-1-enyl)-5,6,7,8-tetrahydroimidazo[1,5-a]pyrazine-1-carboxamide], the concentration for a half-maximal effect (EC50) lay in the range of 0.0001 to 0.01 µM.

`COC(=O)N1CCn2c(-c3ccccc3)nc(C(=O)N[C@H](C)C3CCCCC3)c2C1` [Compound 185, (R)-methyl 1-(1-cyclohexylethylcarbamoyl)-3-phenyl-5,6-dihydroimidazo[1,5-a]pyrazine-7(8H)-carboxylate]: the EC50 lay within 0.01 to 0.1 µM.

Molecule `CNC(=O)[C@@H](NC(=O)c1nc(-c2ccccc2)n2c1CN(Cc1cccn1C)CC2)C(C)(C)C` [Compound 71, (S)-N-(3,3-dimethyl-1-(methylamino)-1-oxobutan-2-yl)-7-((1-methyl-1H-pyrrol-2-yl)methyl)-3-phenyl-5,6,7,8-tetrahydroimidazo[1,5-a]pyrazine-1-carboxamide] yielded an EC50 of 0.01 to 0.1 µM.

For the molecule `COC(=O)N1CCn2c(-c3ccccc3)nc(C(=O)NC3C4(C)CCC(C4)C3(C)C)c2C1` (stereo not drawn) [Compound 178, methyl 3-phenyl-1-(1,3,3-trimethylbicyclo[2.2.1]heptan-2-ylcarbamoyl)-5,6-dihydroimidazo[1,5-a]pyrazine-7(8H)-carboxylate], the EC50 was 0.01 to 0.1 µM.

Consider `CNC(=O)[C@@H](NC(=O)c1nc(-c2ccccc2)n2c1CN(CC(C)C)CC2)C(C)(C)C` [Compound 148, (S)-N-(3,3-dimethyl-1-(methylamino)-1-oxobutan-2-yl)-7-isobutyl-3-phenyl-5,6,7,8-tetrahydroimidazo[1,5-a]pyrazine-1-carboxamide], for which the EC50 lay within 0.01 to 0.1 µM.

`CNC(=O)[C@@H](NC(=O)c1nc(-c2ccccc2)n2c1CN(CC1CC1)CC2)C(C)(C)C` [Compound 56, (S)-7-(cyclopropylmethyl)-N-(3,3-dimethyl-1-(methylamino)-1-oxobutan-2-yl)-3-phenyl-5,6,7,8-tetrahydroimidazo[1,5-a]pyrazine-1-carboxamide] displayed an EC50 of 0.01 to 0.1 µM.
